From PMC11362529, “Exploring the neuroprotective potential of Nrf2-pathway activators against annonacin toxicity” (Scientific Reports, 2024) come the findings set out here.

Type in all cases: cell-based, human
In one experiment the test system is 4R-tau transcripts. Put plainly: 4R-tau mRNA and 4R-/3R-tau ratio by RT-qPCR. Conditions: 48 h. The procedure:
(§1) LUHMES cells were seeded on PLO/FN coated 6-well microplates and the pharmacological treatments were performed as previously explained. The cells were washed in HBSS, prior to being collected for mRNA isolation (RNeasy® Plus Mini Kit, Qiagen, Venlo, Netherlands), following the manufacturer’s instructions. The mRNA concentrations were determined on a Nano-Drop 2000c (Thermo Fisher Scientific) and 1 µg of mRNA was reverse-transcribed into cDNA with the iScript™ Reverse Transcription Supermix for RT-qPCR Kit (Bio-Rad) on a thermal cycler (SensoQuest, Göttingen, Germany). Real-time PCR was performed using SYBR™ Select Master Mix for CFX (Thermo Fisher Scientific) with 30 ng cDNA and 0.4 µM of primers against the respective target genes (Supplementary Table S3), in a 20 µl total volume, on a CFX96 Touch™ Real-Time Cycler (Bio-Rad). The relative expression of mRNA was calculated using the CFX Manager software (ΔΔCt method) from Bio-Rad, and the Ct values of the target-genes were normalized to the reference genes RPL22 and UBQLN1. The data were reported as fold change relative to the control (DMSO-treated) condition.
In general terms: Quantitative PCR measures a nucleic acid by following its amplification.

For another experiment, the system named is total tau transcripts. As to the kind of experiment: Total tau mRNA by RT-qPCR. The settings on record: 20 nM annonacin alone, 48 h, vs control. The procedure:
as §1

A further experiment relates to SRSF2/SC-35. Put plainly: pSC-35 speckle immunofluorescence. The settings on record: 48 h. How it is done:
For immunostaining, cells were seeded in differentiation medium, on 24-well microplates containing PLO/FN-coated 13 mm Ø coverslips, and treated for 48 h as previously described. On the readout day, the medium was removed and cells were fixed, permeabilized and blocked as before. Primary antibody dilutions were made in 1.5% NHS in PBS (Supplementary Table S1) and incubated overnight at 4 °C. On the following day, the coverslips were washed three times with PBS and incubated with host-specific fluorescence secondary antibodies (Supplementary Table S1), for 2 h at RT, protected from light. After another three washes with PBS, cell nuclei were stained with 1:5,000 DAPI (4’,6-diamidino-2-phenylindole, Thermo Fisher Scientific) in PBS, for 15 min at RT. The coverslips were mounted in mowiol and left to dry for 24 h before imaging. Image acquisition for FI quantification was done with a 200 × magnification (20 × objective, 10 × intermediate magnification), or 400x (40 × objective, 10 × intermediate magnification) in the case of pSC-35 and AT8 immunostaining, on a fluorescence microscope Leica-DFC9000GTC (Leica). In the case of phospho-tau AT8, Z-stacks consisting of 18 plane images with a step size of 1 μm were acquired. The image acquisition parameters were identical for all conditions. Quantification of 8-OHdG (8-hydroxyguanosine) FI and tau species was performed using the ImageJ software. Ten-to-fifteen images per condition across triplicates, from different view fields, were used for this purpose. Briefly, TIFF exported images were submitted to background subtraction using the rolling ball method with a radius of 50 pixels. For 8-OHdG analysis, a channel-specific threshold was applied to all images to define the ROI and FI was measured and normalized to the cell number, determined by the DAPI channel. The average value of the different view fields per experimental condition was taken and reported as fold change compared to the control (DMSO-treated) condition. For the analysis of phospho-tau AT270 and pan-tau reactivity, channel specific thresholds were applied to all images. The DAPI channel was used to define nuclei from viable cells, by selecting particles with a size above 15 µm^2 and a circularity of 0.3–1.0. […] These masks were used to quantify the number of somas expressing each of these tau species, as well as the respective FI. The number of AT270-positive somas was divided by the number of pan-tau-positive somas and expressed as a percentage. […] For quantification of pSC-35 and AT8 speckle number and FI, we used CellProfiler™ 4 (https://cellprofiler.org/, Broad Institute Inc., Cambridge, MA, USA) speckle counting pipeline. […]

The subject of the next experiment is 3R-tau transcripts. As to the kind of experiment: 3R-tau mRNA by RT-qPCR. Conditions: 20 nM annonacin alone, 48 h, vs control. How it is done:
as §1

The next experiment relates to NQO1. As to the kind of experiment: NQO1 mRNA after siRNA transfection (RT-qPCR). Conditions: Nrf2 siRNA transfected cells, annonacin model. How it is done: as §1, with “Real-time PCR was performed using SYBR™ Select Master Mix for CFX (Thermo Fisher Scientific) with 30 ng cDNA and 0.4 µM of primers against the respective target genes (Supplementary Table S3), in a 20 µl total volume, on a CFX96 Touch™ Real-Time Cycler (Bio-Rad).” left out, “The data were reported as fold change relative to the control (DMSO-treated) condition.” left out
LUHMES cells seeded on PLO/FN coated 48-well microplates were left to differentiate for 5 days, before being transfected with 25 nM of NRF2-targeting (gene ID 4780) or negative control siRNA (siTOOLs Biotech, Planegg, Germany), in Opti-MEM + GlutaMax medium (Thermo Fisher Scientific) with 0.4% of lipofectamine RNAiMax. […] Cell viability was determined by calcein assay, after 48 h of treatment, as explained before.

[1] abbreviates: 15 μM ezetimibe + 20 nM annonacin.

For `CCCCCCCCCCCC[C@@H](O)[C@H]1CC[C@H]([C@H](O)CCCC[C@H](O)CCCCC[C@@H](O)CC2=CC(C)OC2=O)O1` (some centres unmarked) [annonacin], in the experiment on 4R-tau transcripts (20 nM annonacin alone), the 4R-/3R-tau isoforms ratio came out at 3.5 fold over control and the “upregulation of 4R-tau transcripts over control cells” value is given as “twofold”. Further, the total tau transcripts entry in the experiment on total tau transcripts is “significantly downregulated”. Besides, in the experiment on SRSF2/SC-35 (20 nM annonacin alone), the “number of pSC-35 speckles per nucleus” value is listed as “no changes in the number of pSC-35 speckles per nucleus” and the pSC-35 fluorescence intensity entry is reported as “no changes”. The 3R-tau transcripts result in the experiment on 3R-tau transcripts is on record as “downregulation of 3R-tau transcripts”.
With `O=C1[C@H](CC[C@H](O)c2ccc(F)cc2)[C@@H](c2ccc(O)cc2)N1c1ccc(F)cc1` [ezetimibe], in the experiment on 4R-tau transcripts (setting [1]), the 4R-/3R-tau isoforms ratio entry is “remained similar to healthy control cells” and the 4R-tau transcripts entry is on record as “prevented the annonacin-induced upregulation of 4R-tau transcripts”. Besides, the “number of pSC-35 speckles per nucleus” value in the experiment with SRSF2/SC-35 (setting [1]) is reported as “non-significant reduction of the number of speckles per nucleus”. Also, the “pSC-35 fluorescence intensity per nucleus” value in the experiment with SRSF2/SC-35 (15 μM ezetimibe + 20 nM annonacin, vs control) is listed as “twofold”.
Regarding `C=CC(C)(C)c1cc(/C=C/C(=O)c2ccc(O)cc2)c(OC)cc1O` [licochalcone A], the “NQO1 expression despite Nrf2 knockdown” value in the experiment with NQO1 is “still led to an induction of NQO1 expression”.
